From US9359358B2, “Cyclohexyl azetidine derivatives as JAK inhibitors” (Incyte Holdings Corporation, priority 2011, dated 2016)
Counter-ions that a name gives are not always drawn.

Experiments:
human JAK1 = target: T1, human JAK1 (Homo sapiens, UniProt P23458); assay: In Vitro JAK Kinase Assay (HTRF, phosphorylation of a biotinylated peptide), JAK1; format: biochemical; details: Table 4; catalytic domain a.a. 837-1142, assay of Example A
T1 construct: human JAK1 (a.a. 837-1142); His tag (N); made in house; host or cells: insect cells (baculovirus)
T1 sequence (P23458 849-1154): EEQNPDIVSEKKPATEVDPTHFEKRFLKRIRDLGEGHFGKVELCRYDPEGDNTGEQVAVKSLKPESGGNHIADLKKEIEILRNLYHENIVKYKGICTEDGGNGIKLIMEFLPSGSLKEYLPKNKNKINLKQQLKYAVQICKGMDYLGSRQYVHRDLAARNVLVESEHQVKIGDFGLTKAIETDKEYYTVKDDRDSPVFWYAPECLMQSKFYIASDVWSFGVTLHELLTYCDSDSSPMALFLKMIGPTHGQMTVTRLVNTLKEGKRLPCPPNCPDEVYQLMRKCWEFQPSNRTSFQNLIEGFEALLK
Description: (§1) The catalytic activity of JAK1, JAK2 or JAK3 was assayed by measuring the phosphorylation of a biotinylated peptide. The phosphorylated peptide was detected by homogenous time resolved fluorescence (HTRF). […] Reactions were carried out at room temperature for 1 hour and then stopped with 20 μL 45 mM EDTA, 300 nM SA-APC, 6 nM Eu-Py20 in assay buffer (Perkin Elmer, Boston, Mass.). Binding to the Europium labeled antibody took place for 40 minutes and HTRF signal was measured on a Fusion plate reader (Perkin Elmer, Boston, Mass.).

human JAK2 = target: T2, human JAK2 (Homo sapiens, UniProt O60674); assay: In Vitro JAK Kinase Assay (HTRF, phosphorylation of a biotinylated peptide), JAK2; format: biochemical; details: Table 4; assay of Example A
T2 construct: JAK2 (a.a. 828-1132); His tag (N); made in house; host or cells: insect cells (baculovirus)
T2 sequence (O60674 828-1132): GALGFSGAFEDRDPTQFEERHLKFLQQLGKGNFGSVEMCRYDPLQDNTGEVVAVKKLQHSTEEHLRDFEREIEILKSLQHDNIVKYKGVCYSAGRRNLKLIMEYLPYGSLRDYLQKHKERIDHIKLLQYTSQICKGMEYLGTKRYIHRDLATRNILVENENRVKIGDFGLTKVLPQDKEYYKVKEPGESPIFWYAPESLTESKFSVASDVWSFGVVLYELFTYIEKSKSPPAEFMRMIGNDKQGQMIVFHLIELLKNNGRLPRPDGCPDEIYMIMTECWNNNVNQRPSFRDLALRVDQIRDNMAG
Description: as §1

COCCNCc1cc(O[C@H]2CC[C@@H](N3CC(CC#N)(n4cc(-c5ncnc6[nH]ccc56)cn4)C3)CC2)nc(C(F)(F)F)n1.O=C(O)C(F)(F)F.O=C(O)C(F)(F)F.O=C(O)C(F)(F)F [Example 22, {1-(cis-4-{[6-{[(2-methoxyethyl)amino]methyl}-2-(trifluoromethyl)pyrimidin-4-yl]oxy}cyclohexyl)-3-[4-(7H-pyrrolo[2,3-d]pyrimidin-4-yl)-1H-pyrazol-1-yl]azetidin-3-yl}acetonitrile tris(trifluoroacetate)]
IC50 (human JAK1): < 10 nM
JAK2/JAK1 IC50 ratio (human JAK2): ≧10

N#CCC1(n2cc(-c3ncnc4[nH]ccc34)cn2)CN([C@H]2CC[C@@H](Oc3cc(CN4CCC4)nc(C(F)(F)F)n3)CC2)C1 [Example 23, {1-(cis-4-{[6-(azetidin-1-ylmethyl)-2-(trifluoromethyl)pyrimidin-4-yl]oxy}cyclohexyl)-3-[4-(7H-pyrrolo[2,3-d]pyrimidin-4-yl)-1H-pyrazol-1-yl]azetidin-3-yl}acetonitrile tris(trifluoroacetate)]
IC50 (human JAK1): < 10 nM
JAK2/JAK1 IC50 ratio (human JAK2): ≧10

N#CCC1(n2cc(-c3ncnc4[nH]ccc34)cn2)CN([C@H]2CC[C@@H](Oc3cc(CN4CC(O)C4)nc(C(F)(F)F)n3)CC2)C1 [Example 24, {1-(cis-4-{[6-[(3-hydroxyazetidin-1-yl)methyl]-2-(trifluoromethyl)pyrimidin-4-yl]oxy}cyclohexyl)-3-[4-(7H-pyrrolo[2,3-d]pyrimidin-4-yl)-1H-pyrazol-1-yl]azetidin-3-yl}acetonitrile tris(trifluoroacetate) (salt)]
IC50 (human JAK1): < 10 nM
JAK2/JAK1 IC50 ratio (human JAK2): ≧10

N#CCC1(n2cc(-c3ncnc4[nH]ccc34)cn2)CN([C@H]2CC[C@@H](Oc3cc(CN4CCCC4)nc(C(F)(F)F)n3)CC2)C1 [Example 25, {1-(cis-4-{[6-(pyrrolidin-1-ylmethyl)-2-(trifluoromethyl)pyrimidin-4-yl]oxy}cyclohexyl)-3-[4-(7H-pyrrolo[2,3-d]pyrimidin-4-yl)-1H-pyrazol-1-yl]azetidin-3-yl}acetonitrile tris(trifluoroacetate)]
IC50 (human JAK1): < 10 nM
JAK2/JAK1 IC50 ratio (human JAK2): ≧10

N#CCC1(n2cc(-c3ncnc4[nH]ccc34)cn2)CN([C@H]2CC[C@@H](Oc3cc(CN4CC[C@H](O)C4)nc(C(F)(F)F)n3)CC2)C1 [Example 26, {1-(cis-4-{[6-{[(3S)-3-hydroxypyrrolidin-1-yl]methyl}-2-(trifluoromethyl)pyrimidin-4-yl]oxy}cyclohexyl)-3-[4-(7H-pyrrolo[2,3-d]pyrimidin-4-yl)-1H-pyrazol-1-yl]azetidin-3-yl}acetonitrile tris(trifluoroacetate) (salt)]
IC50 (human JAK1): < 10 nM
JAK2/JAK1 IC50 ratio (human JAK2): ≧10

N#CCC1(n2cc(-c3ncnc4[nH]ccc34)cn2)CN([C@H]2CC[C@@H](Oc3cc(CNC[C@@H]4CCCO4)nc(C(F)(F)F)n3)CC2)C1 [Example 27, [3-[4-(7H-pyrrolo[2,3-d]pyrimidin-4-yl)-1H-pyrazol-1-yl]-1-(cis-4-{[6-({[(2S)-tetrahydrofuran-2-ylmethyl]amino}methyl)-2-(trifluoromethyl)pyrimidin-4-yl]oxy}cyclohexyl)azetidin-3-yl]acetonitrile tris(trifluoroacetate)]
IC50 (human JAK1): < 10 nM
JAK2/JAK1 IC50 ratio (human JAK2): ≧10

N#CCC1(n2cc(-c3ncnc4[nH]ccc34)cn2)CN([C@H]2CC[C@@H](Oc3cc(CN4CCC[C@H]4CO)nc(C(F)(F)F)n3)CC2)C1 [Example 28, {1-(cis-4-{[6-{[(2R)-2-(hydroxymethyl)pyrrolidin-1-yl]methyl}-2-(trifluoromethyl)pyrimidin-4-yl]oxy}cyclohexyl)-3-[4-(7H-pyrrolo[2,3-d]pyrimidin-4-yl)-1H-pyrazol-1-yl]azetidin-3-yl}acetonitrile tris(trifluoroacetate) (salt)]
IC50 (human JAK1): < 10 nM
JAK2/JAK1 IC50 ratio (human JAK2): ≧10

N#CCC1(n2cc(-c3ncnc4[nH]ccc34)cn2)CN([C@H]2CC[C@@H](Oc3cc(CN4CCC[C@@H]4CO)nc(C(F)(F)F)n3)CC2)C1 [Example 29, {1-(cis-4-{[6-{[(2S)-2-(hydroxymethyl)pyrrolidin-1-yl]methyl}-2-(trifluoromethyl)pyrimidin-4-yl]oxy}cyclohexyl)-3-[4-(7H-pyrrolo[2,3-d]pyrimidin-4-yl)-1H-pyrazol-1-yl]azetidin-3-yl}acetonitrile tris(trifluoroacetate) (salt)]
IC50 (human JAK1): < 10 nM
JAK2/JAK1 IC50 ratio (human JAK2): ≧10

N#CCC1(n2cc(-c3ncnc4[nH]ccc34)cn2)CN([C@H]2CC[C@@H](Oc3cc(CN4CC[C@H](F)C4)nc(C(F)(F)F)n3)CC2)C1 [Example 31, {1-(cis-4-{[6-{[(3S)-3-fluoropyrrolidin-1-yl]methyl}-2-(trifluoromethyl)pyrimidin-4-yl]oxy}cyclohexyl)-3-[4-(7H-pyrrolo[2,3-d]pyrimidin-4-yl)-1H-pyrazol-1-yl]azetidin-3-yl}acetonitrile tris(trifluoroacetate)]
IC50 (human JAK1): < 10 nM
JAK2/JAK1 IC50 ratio (human JAK2): ≧10

CCCNCc1cc(O[C@H]2CC[C@@H](N3CC(CC#N)(n4cc(-c5ncnc6[nH]ccc56)cn4)C3)CC2)nc(C(F)(F)F)n1.O=C(O)C(F)(F)F.O=C(O)C(F)(F)F.O=C(O)C(F)(F)F [Example 32, {1-(cis-4-{[6-[(propylamino)methyl]-2-(trifluoromethyl)pyrimidin-4-yl]oxy}cyclohexyl)-3-[4-(7H-pyrrolo[2,3-d]pyrimidin-4-yl)-1H-pyrazol-1-yl]azetidin-3-yl}acetonitrile tris(trifluoroacetate)]
IC50 (human JAK1): < 10 nM
JAK2/JAK1 IC50 ratio (human JAK2): ≧10

N#CCC1(n2cc(-c3ncnc4[nH]ccc34)cn2)CN([C@H]2CC[C@@H](Oc3cc(CNCC(O)CO)nc(C(F)(F)F)n3)CC2)C1 (stereo partly drawn) [Example 33, {1-(cis-4-{[6-{[(2,3-dihydroxypropyl)amino]methyl}-2-(trifluoromethyl)pyrimidin-4-yl]oxy}cyclohexyl)-3-[4-(7H-pyrrolo[2,3-d]pyrimidin-4-yl)-1H-pyrazol-1-yl]azetidin-3-yl}acetonitrile tris(trifluoroacetate) (salt)]
IC50 (human JAK1): < 10 nM
JAK2/JAK1 IC50 ratio (human JAK2): ≧10

CCCCNCc1cc(O[C@H]2CC[C@@H](N3CC(CC#N)(n4cc(-c5ncnc6[nH]ccc56)cn4)C3)CC2)nc(C(F)(F)F)n1.O=C(O)C(F)(F)F.O=C(O)C(F)(F)F.O=C(O)C(F)(F)F [Example 34, {1-(cis-4-{[6-[(butylamino)methyl]-2-(trifluoromethyl)pyrimidin-4-yl]oxy}cyclohexyl)-3-[4-(7H-pyrrolo[2,3-d]pyrimidin-4-yl)-1H-pyrazol-1-yl]azetidin-3-yl}acetonitrile tris(trifluoroacetate)]
IC50 (human JAK1): < 10 nM
JAK2/JAK1 IC50 ratio (human JAK2): ≧10

CCCCN(C)Cc1cc(O[C@H]2CC[C@@H](N3CC(CC#N)(n4cc(-c5ncnc6[nH]ccc56)cn4)C3)CC2)nc(C(F)(F)F)n1.O=C(O)C(F)(F)F.O=C(O)C(F)(F)F.O=C(O)C(F)(F)F [Example 36, {1-(cis-4-{[6-{[butyl(methyl)amino]methyl}-2-(trifluoromethyl)pyrimidin-4-yl]oxy}cyclohexyl)-3-[4-(7H-pyrrolo[2,3-d]pyrimidin-4-yl)-1H-pyrazol-1-yl]azetidin-3-yl}acetonitrile tris(trifluoroacetate)]
IC50 (human JAK1): < 10 nM
JAK2/JAK1 IC50 ratio (human JAK2): ≧10
